For assay [1], the target named is HIV-1 protease (Human immunodeficiency virus type 1 group M subtype B (isolate HXB2) (HIV-1), UniProt P04585). Put plainly: HIV-1 protease inhibition assay (HPLC of hydrolysis product). The class given is biochemical. As to the method:
HIV was a retrovirus with a single-stranded RNA genome. HIV protease was an important enzyme for replication. Translated proteins in the host cell were out into the desired shape by the enzyme. The substance was a protein dimer consisting of 99 amino acids, and the active center was Asp residues.
In this assay, oligopeptide (His-Lys-Ala-Arg-Val-Leu-Phe(NO2)-Glu-Ala-NLe-Ser-NH2) with strengthened absorbance was prepared as a substrate, in which para site of […] was modified by nitro. The substrate was incubated in the presence of HIV-1 protease and the test samples. Generation ratio of hydrolysis product (Phe (NO2)-Glu-Ala-NLe-Ser-NH2) was analyzed by HPLC, and the HIV-1 inhibitory activity in test sample was detected (Y. Wei, C. M. Ma, D. Y. Chen and M. Hattori: Anti-HIV-1 Protease Triterpenoids from Stauntonia Obovatifoloala Hayata Subsp. Phytochemistry, 69, 1875-1879, 2008). In this assay, pepsatatin A was used as a positive control.

Assay [2] concerns the target HCV protease (Hepatitis C virus genotype 1a (isolate H77) (HCV), UniProt P27958). Conditions: from PCT publication No. WO 2009/094807, cited from earlier work; for IC50: read-out: anti HCV activity.
In assay [3] the target is dipeptidyl peptidase-IV (DPPIV) (Homo sapiens (Human), UniProt P27487). As to the kind of experiment: dipeptidyl peptidase-IV (DPPIV) assay. The class given is biochemical. An excerpt:
In addition, the dipeptidyl peptidase-IV (DPPIV) assay herein was applied to investigate the DPPIV inhibitory activity of the prepared compounds as described above. The method of the DPPIV assay was described in Lin et al., 1998. Inhibition of dipeptidyl peptidase IV by fluoroolefin-containing N-peptidyl-O-hydroxylamine peptidomimetics. Proc. Natl. Acad. Sci. USA Vol. 95, pp. 14020-14024.

Assay [4] deals with Propionicbacterium acnes and lipopolysaccharide treated mice. The conditions noted are these: cited from earlier work.
Assay [5] has as its target HCV NS3/4A protease (Hepatitis C virus genotype 1a (isolate H77) (HCV), UniProt P27958). As to the kind of experiment: HCV protease assay (fluorimetric, FRET substrate). Type of assay: biochemical. An excerpt:
The HCV protease assay herein was applied to investigate the HCV-protease inhibitory activity of the prepared compounds as described above. The method of the HCV protease assay was described in D. T. Phuong, C. M. Ma, M. Hattori and J. S. Jin: Inhibitory Effects of Antrodins A-E from Antrodia cinnamomea and Their Metabolites on Hepatitis C Virus Protease. Phytotherapy Research, 23, 582-584, 2009. Two micro liters of a compound solution (using DMSO as solvent) was placed in 384 well micro plate, then 8 μl of HCV NS3/4A protease ([…]) was added to the well containing a sample and the plate was agitated. Finally, 10 μL of freshly prepared substrate (Ac-Asp-Glu-Dap(QXL™520)-Glu-Glu-Abu-COO-Ala-Ser-Cys(5-FAMsp)-NH2) (100× dilution of a DMSO stock solution) was added with sequential rotational shaking. The reaction mixture was incubated for 30 min at 37° C. The fluorimetric analyses were performed on an automated TECAN GENios plate reader with excitation wavelength at 485 nm and emission 530 nm. Each test compound was carried out in triplicate. The HCV—PR inhibition (%) was calculated by using the following equation: % inhibition=(Fvehicle control−[…])×100/Fvehicle control (Where F is the fluorescence value of vehicle control or of sample minus the fluorescence of the substrate control).

Assay [6] deals with NS3/4A HCV protease (Hepatitis C virus genotype 1a (isolate H77) (HCV), UniProt P27958). Put plainly: NS3/4A HCV protease inhibition assay. The class given is biochemical. The conditions noted are these: read-out: NS3/4A HCV protease inhibitive activity IC50. The procedure:
When sensitive cells were infected with HCV virus, some precursor proteins were translated from uncoated virus RNA in the cytoplasm. According to the protease, the precursor proteins were processed into different viral proteins. Among viral proteins, NS3, a serine protease and RNA helicase, was an important non-structural protein involved in virus protein maturation and virus genome replication.
In this assay, protein (FRET) was prepared and modified with fluorescent protein 5-FAM as a substrate and QXL™520 as a quencher. The substrate was incubated with NS3/4A HCV protease and testing samples, and the fluorescence intensity was measured, according to the mechanism shown in FIG. 7 (C. M. Ma, Yo Wei, Z. G. Wang and M. Hattori: Triterpenes from Cynomorium Songaricium-analysis of HCV Protease Inhibitory Activity, Quantification and Content Change Under the Influence of Heating. J. Nat. Med., 63, 9-14, 2009). In this assay, HCV NS3 Protease Inhibitor 2 was used as positive control.

[7] abbreviates: read-out: HIV-1 protease inhibitive activity IC50.
The mark [8] stands for this setting: Table 10, first scaffold, read-out: IC50 against DPPIV (converted).
Setting [9] is: Table 10, second scaffold, read-out: IC50 against DPPIV (converted).
The mark [10] stands for this setting: HCV NS3/4A protease, 30 min at 37° C., triplicate, read-out: IC50 against HCV protease.

Consider 25 compounds from patent publication US9115083B2 (Simpson Biotech Co., Ltd, priority 2011, dated 2015).

Several values for one entry are separate records, joined by “and”; a condition that tells them apart may be missing. Identical values can stand only once. Like-named read-outs stand apart in the source and are kept apart here.

Sequence of dipeptidyl peptidase-IV (DPPIV) (P27487 whole entry, species assumed): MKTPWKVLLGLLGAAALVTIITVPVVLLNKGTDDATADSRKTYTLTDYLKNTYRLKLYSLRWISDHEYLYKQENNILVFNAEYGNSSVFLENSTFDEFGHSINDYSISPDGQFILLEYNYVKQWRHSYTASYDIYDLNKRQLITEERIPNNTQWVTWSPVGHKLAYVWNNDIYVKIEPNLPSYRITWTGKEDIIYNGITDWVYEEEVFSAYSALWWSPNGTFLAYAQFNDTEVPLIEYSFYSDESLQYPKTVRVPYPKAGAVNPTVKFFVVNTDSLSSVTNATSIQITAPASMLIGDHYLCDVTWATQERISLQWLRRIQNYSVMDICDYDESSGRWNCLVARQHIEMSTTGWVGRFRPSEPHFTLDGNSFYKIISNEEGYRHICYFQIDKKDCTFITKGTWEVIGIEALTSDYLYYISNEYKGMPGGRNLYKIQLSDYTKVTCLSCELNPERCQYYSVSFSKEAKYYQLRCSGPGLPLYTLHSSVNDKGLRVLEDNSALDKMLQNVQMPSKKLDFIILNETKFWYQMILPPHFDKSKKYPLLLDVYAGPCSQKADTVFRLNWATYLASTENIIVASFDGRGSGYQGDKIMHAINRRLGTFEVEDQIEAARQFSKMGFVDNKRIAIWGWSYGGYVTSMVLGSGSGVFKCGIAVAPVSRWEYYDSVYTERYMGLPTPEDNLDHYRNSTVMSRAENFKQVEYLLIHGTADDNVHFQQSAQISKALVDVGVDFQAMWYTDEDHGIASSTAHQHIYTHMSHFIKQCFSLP
Sequence of HCV protease (P27958 1027-1657): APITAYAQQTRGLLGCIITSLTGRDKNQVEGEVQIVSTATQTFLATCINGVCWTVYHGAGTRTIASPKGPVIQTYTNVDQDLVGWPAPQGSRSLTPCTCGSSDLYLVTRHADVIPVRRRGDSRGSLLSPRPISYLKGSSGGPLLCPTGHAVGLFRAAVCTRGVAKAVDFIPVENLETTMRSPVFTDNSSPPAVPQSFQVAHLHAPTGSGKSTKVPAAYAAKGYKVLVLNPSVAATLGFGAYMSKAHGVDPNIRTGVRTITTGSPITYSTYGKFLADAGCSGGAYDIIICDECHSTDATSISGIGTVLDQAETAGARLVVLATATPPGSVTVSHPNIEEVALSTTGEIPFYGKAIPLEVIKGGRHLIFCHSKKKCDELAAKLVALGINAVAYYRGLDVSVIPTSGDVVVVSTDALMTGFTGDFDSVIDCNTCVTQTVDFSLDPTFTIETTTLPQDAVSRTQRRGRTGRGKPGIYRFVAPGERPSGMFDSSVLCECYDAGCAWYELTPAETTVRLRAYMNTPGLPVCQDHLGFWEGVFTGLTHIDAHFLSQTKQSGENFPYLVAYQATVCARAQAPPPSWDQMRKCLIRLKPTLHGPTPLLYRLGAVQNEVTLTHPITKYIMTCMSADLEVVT
Sequence of HCV protease (P27958 1658-1711 partner): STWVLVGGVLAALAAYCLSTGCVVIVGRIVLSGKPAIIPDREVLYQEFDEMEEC
Sequence of HCV NS3/4A protease (P27958 1027-1657): as the sequence (P27958 1027-1657) above
Sequence of HCV NS3/4A protease (P27958 1658-1711 partner): as the sequence (P27958 1658-1711 partner) above
Sequence of NS3/4A HCV protease (P27958 1027-1657): as the sequence (P27958 1027-1657) above
Sequence of NS3/4A HCV protease (P27958 1658-1711 partner): as the sequence (P27958 1658-1711 partner) above

Turning to `CC(C)=CCOc1ccc([C@H]2C(=O)N(O)C(=O)[C@@H]2CC(C)C)cc1` (relative stereo) [Compound 4, (3R*,4S*)-1-hydroxy-3-isobutyl-4-[4-(3-methyl-2-butenyloxy)phenyl]pyrrolidine-2,5-dione], in assay [1] (setting [7]), the IC50 was determined as 4.4 µM. With `CC(C)=CCOc1ccc([C@@H]2C(=O)N(O)C(=O)[C@@H]2CC(C)C)cc1` (relative stereo) [Compound 5, (3R*,4R*)-1-hydroxy-3-isobutyl-4-[4-(3-methyl-2-butenyloxy)phenyl]pyrrolidine-2,5-dione], the IC50 in assay [1] (setting [7]) came out at 198 µM. As to `CC(C)=CCOc1ccc(C2=C(CC(C)C)C(=O)OC2=O)cc1` [Compound 1, 3-isobutyl-4-[4-(3-methyl-2-butenyloxy)phenyl]furan-2,5-dione], the IC50 in assay [1] is over 300 µM; in assay [2], 2.86 µM; in assay [3] (setting [8]), 79.5 µM. Consider `CC(C)=CCOc1ccc(C2=C(CC(C)C)C(=O)NC2=O)cc1` [Compound 2, 3-isobutyl-4-[4-(3-methyl-2-butenyloxy)phenyl]-1H-pyrrol-2,5-dione], for which the IC50 was 54 µM in assay [1] and 160 µM in assay [3] (setting [8]). The “anti HCV activity (in words)” value in assay [2] was “low activity”.

On to `CC(C)=CCOc1ccc(C2=C(CC(C)C)C(=O)N(O)C2=O)cc1` [Compound 3, 3-isobutyl-4-[4-(3-methyl-2-butenyloxy)phenyl]-1H-pyrrol-1-ol-2,5-dione], for which the IC50 in assay [1] was 6.5 µM; in assay [2], 8.8 µM; in assay [3] (setting [8]), 115 µM. Besides, in assay [4], the “protective activity in treated mice” value is listed as “protective activity”. For `CC(C)=CCOc1ccc(C2=C(CC(C)C)C(=O)N(C(CC(C)C)C(=O)O)C2=O)cc1` (stereo not drawn) [Compound A1, 2-(3-Isobutyl-4-(4-(3-methylbut-2-enyloxy)phenyl)-2,5-dioxo-2,5-dihydro-1H-pyrrol-1-yl)-4-methylpentanoic acid], the IC50 was 8.6 µM in assay [5] and 105 µM in assay [3] (setting [8]). `COC(=O)[C@@H]1CCCN1C(=O)C(CC(C)C)N1C(=O)C(CC(C)C)=C(c2ccc(OCC=C(C)C)cc2)C1=O` (stereo partly drawn) [Compound A1-5]: in assay [3] (IC50 against DPPIV, Table 10, first scaffold), the IC50 is > 186 µM and 65 µM.

On to `CC(C)CC1C(=O)N(C(CC(C)C)C(=O)N2CCC[C@H]2C(=O)O)C(=O)C1c1ccc(O)cc1` (stereo partly drawn) [Compound A1-9], for which, in assay [3] (setting [9]), the IC50 was 29 µM. The same measure, in the same setting: for `CC(C)CC1C(=O)N(C(CC(C)C)C(=O)O)C(=O)C1c1ccc(O)cc1` (stereo not drawn) [Compound A1-t] the value was 75 µM. For `CC(C)=CCOc1ccc(C2=C(CC(C)C)C(=O)N(C(Cc3ccccc3)C(=O)O)C2=O)cc1` (stereo not drawn) [Compound A2, 2-(3-Isobutyl-4-(4-(3-methylbut-2-enyloxy)phenyl)-2,5-dioxo-2,5-dihydro-1H-pyrrol-1-yl)-3-phenylpropanoic acid], the figures for the IC50 in assay [5] and in assay [3] (setting [8]) were 14 µM and 75.8 µM, respectively.

For `CC(C)CC1C(=O)N(C(Cc2ccccc2)C(=O)N2CCC[C@H]2C(=O)O)C(=O)C1c1ccc(O)cc1` (stereo partly drawn) [Compound A2-14], in assay [3] (setting [9]), the IC50 was 60 µM.

`CC(C)CC1C(=O)N(C(Cc2ccccc2)C(=O)O)C(=O)C1c1ccc(O)cc1` (stereo not drawn) [Compound A2-t]: the IC50 in assay [3] (setting [9]) is 90 µM. `CC(C)=CCOc1ccc(C2=C(CC(C)C)C(=O)N(C(CO)C(=O)O)C2=O)cc1` (stereo not drawn) [Compound A3, 3-Hydroxy-2-(3-isobutyl-4-(4-(3-methylbut-2-enyloxy)phenyl)-2,5-dioxo-2,5-dihydro-1H-pyrrol-1-yl)propanoic acid]: the results for the IC50 in assay [5] and in assay [3] (setting [8]) were 27 µM and 99.6 µM, respectively. `CC(C)CC1C(=O)N(C(CO)C(=O)N2CCC[C@H]2C(=O)O)C(=O)C1c1ccc(O)cc1` (stereo partly drawn) [Compound A3-15]: in assay [3] (setting [9]), the IC50 is 85 µM. Turning to `CC(C)CC1C(=O)N(C(CO)C(=O)O)C(=O)C1c1ccc(O)cc1` (stereo not drawn) [Compound A3-t], the IC50 in assay [3] (setting [9]) is 70 µM. With `CC(C)=CCOc1ccc(C2C(=O)N(O)C(=O)/C2=C\C(C)C)cc1` (stereo not drawn) [Compound of formula (XIII)], the IC50 in assay [1] (setting [7]) amounted to 16.6 µM; in assay [6] it was 8.7 µM. `CCOC(=O)[C@H](Cc1ccccc1)NC(=O)C(=O)C(c1ccccc1)N1C(=O)C(CC(C)C)=C(c2ccc(OCC=C(C)C)cc2)C1=O` (stereo partly drawn) [KC-1, Ethyl 2-(3-(3-isobutyl-4-(4-(3-methylbut-2-enyloxy)phenyl)-2,5-dioxo-2,5-dihydro-1H-pyrrol-1-yl)-2-oxo-3-phenylpropanamido)-3-phenylpropanoate]: the IC50 in assay [5] (setting [10]) was over 100 µM. In the case of `CCOC(=O)[C@H](C)NC(=O)C(=O)C(c1ccccc1)N1C(=O)C(CC(C)C)=C(c2ccc(OCC=C(C)C)cc2)C1=O` (stereo partly drawn) [KC-2, Ethyl 2-(3-(3-isobutyl-4-(4-(3-methylbut-2-enyloxy)phenyl)-2,5-dioxo-2,5-dihydro-1H-pyrrol-1-yl)-2-oxo-3-phenylpropanamido)propanoate], the IC50 in assay [5] (setting [10]) was over 100 µM. Consider `CC(C)=CCOc1ccc(C2=C(CC(C)C)C(=O)N(C(C(=O)C(=O)NC(C)C(=O)OC(C)(C)C)c3ccccc3)C2=O)cc1` (stereo not drawn) [KC-4-2], for which the IC50 in assay [5] (setting [10]) amounted to 18.3 µM. For the compound `CC(C)CC1C(=O)N(CC(C(=O)C(=O)NC(C)C(=O)O)c2ccccc2)C(=O)C1c1ccc(O)cc1` (stereo not drawn) [KC-4], the IC50 in assay [5] (setting [10]) came out at 14.6 µM. For `CC(C)=CCOc1ccc(C2=C(CC(C)C)C(=O)N(C(C(=O)C(=O)NC(Cc3ccccc3)C(=O)OC(C)(C)C)c3ccccc3)C2=O)cc1` (stereo not drawn) [KC-5-2], the IC50 in assay [5] (setting [10]) came to 51.6 µM. With `CC(C)CC1C(=O)N(CC(C(=O)C(=O)NC(Cc2ccccc2)C(=O)O)c2ccccc2)C(=O)C1c1ccc(O)cc1` (stereo not drawn) [KC-5], the IC50 in assay [5] (setting [10]) amounted to 9 µM. Still for that read-out and setting: for `CC(C)CC1C(=O)C(C(c2ccccc2)C(O)C(=O)O)C(=O)C1c1ccc(O)cc1` (stereo not drawn) [KC-t] the value was 73 µM; for `CC(C)=CCOc1ccc(C2=C(CC(C)C)C(=O)N(C(C(=O)C(N)=O)c3ccccc3)C2=O)cc1` (stereo not drawn) [KCnh-1], 1.95 µM. Regarding `CC(C)CC1C(=O)N(C(C(=O)C(N)=O)c2ccccc2)C(=O)C1c1ccc(O)cc1` (stereo not drawn) [KCnh-2], the IC50 in assay [5] (setting [10]) came to 1.4 µM.
